Where a name gives a salt, the structure may show the parent alone. Read-outs that look alike come from different tables or passages of the source. Starred links: 1 amine or outer side, 2 acyl side, 3 side chain; linkers in the order of their positions; H or OH if unused. Positions of bridges follow the written chain, without caps; N, C: chain ends. Non-standard residues stand in square brackets, D forms with d. Residues, ends and D or L forms follow the SMILES beside them. *: point of attachment. pTerphenylCO(4''-OnC5H11) = CCCCCOc1ccc(-c2ccc(-c3ccc(C(=O)*)cc3)cc2)cc1; Orn(4R-OH,5R-OH) = O=C([C@H](C[C@@H](O)[C@@H](O)N[*:3])N[*:1])[*:2]; hTyr(3S-OH,4S-OH) = N[C@H](C(=O)O)[C@H](O)[C@@H](O)c1ccc(O)cc1; Pro(3S-OH,4S-Me) = C[C@H]1CN[C@H](C(=O)O)[C@H]1O; Hyp = O=C(O)[C@@H]1C[C@@H](O)CN1
How the values were obtained:
Type in all cases: biochemical
[1] = target: T1, recombinant PRL-1 (Homo sapiens, UniProt Q93096); assay: In vitro phosphatase assay (DiFMUP hydrolysis), PRL-1; further: test concentration or dose not given here
T1 construct: 6xHis (N, cleaved yes); made in house; host or cells: E. coli One Shot BL21 Star
T1 sequence (Q93096 1-173): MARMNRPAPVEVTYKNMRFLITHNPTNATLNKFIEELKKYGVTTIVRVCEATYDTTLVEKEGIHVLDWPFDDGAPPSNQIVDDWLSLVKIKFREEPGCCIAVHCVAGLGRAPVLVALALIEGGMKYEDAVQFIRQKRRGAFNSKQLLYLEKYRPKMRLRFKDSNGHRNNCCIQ

[2] = target: T2, recombinant PRL-3 (Homo sapiens, UniProt O75365); assay: In vitro phosphatase assay (DiFMUP hydrolysis), PRL-3; further: test concentration or dose not given here
T2 construct: 6xHis (N, cleaved yes); made in house; host or cells: E. coli One Shot BL21 Star

[3] = target: T3, recombinant PRL-2 (Homo sapiens, UniProt Q12974); assay: In vitro phosphatase assay (DiFMUP hydrolysis), PRL-2;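 further: PRL-2 activity read as DiFMUP hydrolysis after 20 min at room temperature with drug, enzyme first pre-reduced at 4 °C for 20 min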
T3 construct: 6xHis (N, cleaved yes); made in house; host or cells: E. coli One Shot BL21 Star
T3 sequence (Q12974 1-167): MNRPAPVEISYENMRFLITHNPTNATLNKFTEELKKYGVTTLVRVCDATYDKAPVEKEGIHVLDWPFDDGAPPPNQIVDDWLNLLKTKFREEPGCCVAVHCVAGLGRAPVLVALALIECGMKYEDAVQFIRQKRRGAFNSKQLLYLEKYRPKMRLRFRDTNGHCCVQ

[4] = FDA-approved drug screen, compared to DMSO

T2 sequence (O75365 whole entry): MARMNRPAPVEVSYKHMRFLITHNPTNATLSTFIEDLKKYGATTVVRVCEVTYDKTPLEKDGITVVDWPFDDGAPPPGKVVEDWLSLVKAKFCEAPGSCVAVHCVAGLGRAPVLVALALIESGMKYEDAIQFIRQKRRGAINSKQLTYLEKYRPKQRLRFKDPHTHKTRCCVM

Structure (SMILES): CC1(C)S[C@@H]2[C@H](NC(=O)[C@H](N)c3ccc(O)cc3)C(=O)N2[C@H]1C(=O)[O-].[Na+] [Amoxicillin Sodium]
- % Phosphatase Activity (compared to DMSO) PRL-1 [1]: 97%
- % Phosphatase Activity (compared to DMSO) PRL-3 [2]: 80%
- % Phosphatase Activity (compared to DMSO) PRL-2 [3]: 114%

Structure (SMILES): C[C@@H]1[C@H](O)[C@@H](C)/C=C/C=C/C=C/C=C/C=C/C=C/C=C/[C@H](O[C@@H]2O[C@H](C)[C@@H](O)[C@H](N)[C@@H]2O)C[C@@H]2O[C@](O)(C[C@@H](O)C[C@@H](O)[C@H](O)CC[C@@H](O)C[C@@H](O)CC(=O)O[C@H]1C)C[C@H](O)[C@H]2C(=O)O [Amphotericin B]
- % Phosphatase Activity (compared to DMSO) PRL-1 [1, 4]: 102%
- % Phosphatase Activity (compared to DMSO) PRL-3 [2, 4]: 80%
- % Phosphatase Activity (compared to DMSO) PRL-2 [3, 4]: 92%

Structure (SMILES): CC1(C)S[C@@H]2[C@H](NC(=O)[C@H](N)c3ccccc3)C(=O)N2[C@H]1C(=O)O [Ampicillin Trihydrate]
- % Phosphatase Activity (compared to DMSO) PRL-1 [1, 4]: 92%
- % Phosphatase Activity (compared to DMSO) PRL-3 [2, 4]: 72%
- % Phosphatase Activity (compared to DMSO) PRL-2 [3, 4]: 106%

Structure (SMILES): CC1(C)S[C@@H]2[C@H](NC(=O)[C@H](N)c3ccccc3)C(=O)N2[C@H]1C(=O)O [Ampicillin sodium]
- % Phosphatase Activity (compared to DMSO) PRL-1 [1, 4]: 120%
- % Phosphatase Activity (compared to DMSO) PRL-3 [2, 4]: 92%
- % Phosphatase Activity (compared to DMSO) PRL-2 [3, 4]: 127%

Structure (SMILES): CCOC(=O)OC(C)OC1=C(C(=O)Nc2ccccn2)N(C)S(=O)(=O)c2ccccc21 (stereo not drawn) [Ampiroxicam]
- % Phosphatase Activity (compared to DMSO) PRL-1 [1, 4]: 114%
- % Phosphatase Activity (compared to DMSO) PRL-3 [2, 4]: 88%
- % Phosphatase Activity (compared to DMSO) PRL-2 [3, 4]: 114%

Structure (SMILES): CC(C)CN(C[C@@H](O)[C@H](Cc1ccccc1)NC(=O)O[C@H]1CCOC1)S(=O)(=O)c1ccc(N)cc1 [Amprenavir]
- % Phosphatase Activity (compared to DMSO) PRL-1 [1, 4]: 96%
- % Phosphatase Activity (compared to DMSO) PRL-3 [2, 4]: 77%
- % Phosphatase Activity (compared to DMSO) PRL-2 [3, 4]: 81%

Structure (SMILES): CCCc1ncc(C[n+]2ccccc2C)c(N)n1.Cl.[Cl-] [Amprolium HCl]
- % Phosphatase Activity (compared to DMSO) PRL-1 [1, 4]: 97%
- % Phosphatase Activity (compared to DMSO) PRL-3 [2, 4]: 94%
- % Phosphatase Activity (compared to DMSO) PRL-2 [3, 4]: 97%

Structure (SMILES): S=C(NCc1ccc2c(c1)OCO2)N1CCN(c2ncnc3c2oc2ccccc23)CC1 [Amuvatinib (MP-470)]
- % Phosphatase Activity (compared to DMSO) PRL-1 [1, 4]: 90%
- % Phosphatase Activity (compared to DMSO) PRL-3 [2, 4]: 76%
- % Phosphatase Activity (compared to DMSO) PRL-2 [3, 4]: 100%

Structure (SMILES): O=C1CN2Cc3c(ccc(Cl)c3Cl)N=C2N1 [Anagrelide HCl]
- % Phosphatase Activity (compared to DMSO) PRL-1 [1, 4]: 93%
- % Phosphatase Activity (compared to DMSO) PRL-3 [2, 4]: 80%
- % Phosphatase Activity (compared to DMSO) PRL-2 [3, 4]: 91%

Structure (SMILES): CC(C)(C#N)c1cc(Cn2cncn2)cc(C(C)(C)C#N)c1 [Anastrozole]
- % Phosphatase Activity (compared to DMSO) PRL-1 [1, 4]: 106%
- % Phosphatase Activity (compared to DMSO) PRL-3 [2, 4]: 96%
- % Phosphatase Activity (compared to DMSO) PRL-2 [3, 4]: 122%

Structure (SMILES): CCCCCOc1ccc(-c2ccc(-c3ccc(C(=O)N[C@H]4C[C@@H](O)[C@@H](O)NC(=O)[C@@H]5[C@@H](O)[C@@H](C)CN5C(=O)[C@H]([C@@H](C)O)NC(=O)[C@H]([C@H](O)[C@@H](O)c5ccc(O)cc5)NC(=O)[C@@H]5C[C@@H](O)CN5C(=O)[C@H]([C@@H](C)O)NC4=O)cc3)cc2)cc1 [Anidulafungin (LY303366)] ({pTerphenylCO(4''-OnC5H11)}-[Orn(4R-OH,5R-OH)]T[Hyp][hTyr(3S-OH,4S-OH)]T[Pro(3S-OH,4S-Me)]; lactam 1-C)
- % Phosphatase Activity (compared to DMSO) PRL-1 [1, 4]: 569%
- % Phosphatase Activity (compared to DMSO) PRL-3 [2, 4]: 623%
- % Phosphatase Activity (compared to DMSO) PRL-2 [3, 4]: 568%

Structure (SMILES): COc1ccc(C(=O)N2CCCC2=O)cc1 [Aniracetam]
- % Phosphatase Activity (compared to DMSO) PRL-1 [1, 4]: 102%
- % Phosphatase Activity (compared to DMSO) PRL-3 [2, 4]: 75%
- % Phosphatase Activity (compared to DMSO) PRL-2 [3, 4]: 104%

Structure (SMILES): CCCC(CCC)C(=O)O[C@H]1C[C@H]2CC[C@@H](C1)[N+]2(C)C [Anisotropine Methylbromide]
- % Phosphatase Activity (compared to DMSO) PRL-1 [1, 4]: 111%
- % Phosphatase Activity (compared to DMSO) PRL-3 [2, 4]: 77%
- % Phosphatase Activity (compared to DMSO) PRL-2 [3, 4]: 108%

Structure (SMILES): c1ccc(CN(CC2=NCCN2)c2ccccc2)cc1 [Antazoline HCl]
- % Phosphatase Activity (compared to DMSO) PRL-1 [1, 4]: 91%
- % Phosphatase Activity (compared to DMSO) PRL-3 [2, 4]: 76%
- % Phosphatase Activity (compared to DMSO) PRL-2 [3, 4]: 104%

Structure (SMILES): Cc1cc(=O)n(-c2ccccc2)n1C [Antipyrine]
- % Phosphatase Activity (compared to DMSO) PRL-1 [1, 4]: 98%
- % Phosphatase Activity (compared to DMSO) PRL-3 [2, 4]: 87%
- % Phosphatase Activity (compared to DMSO) PRL-2 [3, 4]: 107%

Structure (SMILES): N#CC1(c2ccc(NC(=O)c3cccnc3NCc3ccncc3)cc2)CCCC1 [Apatinib]
- % Phosphatase Activity (compared to DMSO) PRL-1 [1, 4]: 100%
- % Phosphatase Activity (compared to DMSO) PRL-3 [2, 4]: 88%
- % Phosphatase Activity (compared to DMSO) PRL-2 [3, 4]: 106%

Structure (SMILES): COc1ccc(-n2nc(C(N)=O)c3c2C(=O)N(c2ccc(N4CCCCC4=O)cc2)CC3)cc1 [Apixaban]
- % Phosphatase Activity (compared to DMSO) PRL-1 [1, 4]: 102%
- % Phosphatase Activity (compared to DMSO) PRL-3 [2, 4]: 80%
- % Phosphatase Activity (compared to DMSO) PRL-2 [3, 4]: 132%

Structure (SMILES): CCOc1cc([C@@H](CS(C)(=O)=O)N2C(=O)c3cccc(NC(C)=O)c3C2=O)ccc1OC [Apremilast (CC-10004)]
- % Phosphatase Activity (compared to DMSO) PRL-1 [1, 4]: 100%
- % Phosphatase Activity (compared to DMSO) PRL-3 [2, 4]: 86%
- % Phosphatase Activity (compared to DMSO) PRL-2 [3, 4]: 78%

Structure (SMILES): C[C@@H](O[C@H]1OCCN(Cc2n[nH]c(=O)[nH]2)[C@H]1c1ccc(F)cc1)c1cc(C(F)(F)F)cc(C(F)(F)F)c1 [Aprepitant]
- % Phosphatase Activity (compared to DMSO) PRL-1 [1, 4]: 104%
- % Phosphatase Activity (compared to DMSO) PRL-3 [2, 4]: 80%
- % Phosphatase Activity (compared to DMSO) PRL-2 [3, 4]: 94%

Structure (SMILES): CN(C)CCOC(c1ccc(Cl)cc1)c1ccccn1.O=C(O)/C=C\C(=O)O (stereo not drawn) [ArbinoxaMine Maleate]
- % Phosphatase Activity (compared to DMSO) PRL-1 [1, 4]: 100%
- % Phosphatase Activity (compared to DMSO) PRL-3 [2, 4]: 91%
- % Phosphatase Activity (compared to DMSO) PRL-2 [3, 4]: 77%

Structure (SMILES): COC(=O)C1=CCCN(C)C1 [Arecoline]
- % Phosphatase Activity (compared to DMSO) PRL-1 [1, 4]: 98%
- % Phosphatase Activity (compared to DMSO) PRL-3 [2, 4]: 84%
- % Phosphatase Activity (compared to DMSO) PRL-2 [3, 4]: 131%

Structure (SMILES): CC1CNc2c(cccc2S(=O)(=O)N[C@@H](CCCNC(=N)N)C(=O)N2CC[C@@H](C)C[C@@H]2C(=O)O)C1 (stereo partly drawn) [Argatroban]
- % Phosphatase Activity (compared to DMSO) PRL-1 [1, 4]: 104%
- % Phosphatase Activity (compared to DMSO) PRL-3 [2, 4]: 80%
- % Phosphatase Activity (compared to DMSO) PRL-2 [3, 4]: 100%

Structure (SMILES): O=C1CCc2ccc(OCCCCN3CCN(c4cccc(Cl)c4Cl)CC3)cc2N1 [Aripiprazole]
- % Phosphatase Activity (compared to DMSO) PRL-1 [1, 4]: 100%
- % Phosphatase Activity (compared to DMSO) PRL-3 [2, 4]: 103%
- % Phosphatase Activity (compared to DMSO) PRL-2 [3, 4]: 111%

Structure (SMILES): NC(=O)C[S@@+]([O-])C(c1ccccc1)c1ccccc1 [Armodafinil]
- % Phosphatase Activity (compared to DMSO) PRL-1 [1, 4]: 94%
- % Phosphatase Activity (compared to DMSO) PRL-3 [2, 4]: 73%
- % Phosphatase Activity (compared to DMSO) PRL-2 [3, 4]: 90%
